Reference: paper PMC3815952 (Microbial biotechnology, 2009)

Experiments:
[1] = test system: Bcen2424–2051; conditions: read-out: Substrates / Chloroacetate / KM; Tris-SO4 pH 8.5, 30°C
[2] = molecular target: RHA1_ro00230 (Rhodococcus jostii, UniProt Q0SK70); assay: calorimetry, non-linear regression; format: biochemical; conditions: Tris-SO4 pH 8.5, 30°C
[3] = molecular target: RPA1163 (Rhodopseudomonas palustris, UniProt Q6NAM1); assay: calorimetry, non-linear regression; format: biochemical; conditions: Tris-SO4 pH 8.5, 30°C
[4] = test system: Bpro4516; conditions: Tris-SO4 pH 8.5, 30°C
[5] = test system: Adeh3811; assay: calorimetry, non-linear regression; format: biochemical, Anaeromyxobacter dehalogenans; conditions: Tris-SO4 pH 8.5, 30°C

Sequence of RPA1163 (Q6NAM1 whole entry): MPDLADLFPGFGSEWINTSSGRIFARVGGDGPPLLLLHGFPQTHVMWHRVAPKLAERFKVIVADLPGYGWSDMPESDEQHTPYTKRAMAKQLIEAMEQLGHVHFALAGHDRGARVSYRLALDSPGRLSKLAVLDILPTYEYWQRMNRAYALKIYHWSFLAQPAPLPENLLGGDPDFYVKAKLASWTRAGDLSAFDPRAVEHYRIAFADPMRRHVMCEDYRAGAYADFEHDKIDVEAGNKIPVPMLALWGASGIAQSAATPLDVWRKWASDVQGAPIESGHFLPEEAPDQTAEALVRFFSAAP
Sequence of RHA1_ro00230 (Q0SK70 1-254): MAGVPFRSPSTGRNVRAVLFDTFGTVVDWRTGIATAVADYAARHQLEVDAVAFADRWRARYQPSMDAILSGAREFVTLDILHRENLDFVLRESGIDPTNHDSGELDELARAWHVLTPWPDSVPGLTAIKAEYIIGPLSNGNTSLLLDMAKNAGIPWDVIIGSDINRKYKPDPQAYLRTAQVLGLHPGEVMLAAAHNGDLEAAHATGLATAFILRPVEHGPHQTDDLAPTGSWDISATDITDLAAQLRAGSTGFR

SMILES	Km [1] [µM]	Substrates / Chloroacetate / KM (μM) [2]	Substrates / Chloroacetate / KM (μM) [3]	Substrates / Fluoroacetate / KM (μM) [4]	Substrates / Fluoroacetate / KM (μM) [2]	Substrates / Fluoroacetate / KM (μM) [5]	Substrates / Fluoroacetate / KM (μM) [3]
O=C(O)CCl [chloroacetate]	17 ± 2	19 000 ± 2000 µM	1 400 ± 400 µM	–	–	–	–
O=C(O)CF [fluoroacetate]	–	–	–	19 000 ± 2000 µM	20 000 ± 2000 µM	13 500 ± 300 µM	3 300 ± 200 µM
